The values that follow come from patent US10173991B2, “Sulfone amide linked benzothiazole inhibitors of endothelial lipase” (BRISTOL-MYERS SQUIBB COMPANY, priority 2014, dated 2019).

By IC50 is commonly meant the concentration that inhibits the measured activity by half.

Each structure is given as a SMILES string.

The target in the assay is Endothelial lipase (EL) (Homo sapiens (Human), UniProt Q9Y5X9). Kind of assay: Endothelial lipase (EL) enzymatic assay with fluorescent substrate A10070 in DMPG vesicles. It counts as biochemical. The method, boiled down: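 Compounds were preincubated with enzyme for 30 min at 37° C before FRET-substrate vesicles (A10070 in DMPG, 0.11 mole fraction) were added. Reaction rates were obtained from the 300–900 sec slope of fluorescence at 490/530 nm.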
Chain of Endothelial lipase (EL) (Q9Y5X9 21-500): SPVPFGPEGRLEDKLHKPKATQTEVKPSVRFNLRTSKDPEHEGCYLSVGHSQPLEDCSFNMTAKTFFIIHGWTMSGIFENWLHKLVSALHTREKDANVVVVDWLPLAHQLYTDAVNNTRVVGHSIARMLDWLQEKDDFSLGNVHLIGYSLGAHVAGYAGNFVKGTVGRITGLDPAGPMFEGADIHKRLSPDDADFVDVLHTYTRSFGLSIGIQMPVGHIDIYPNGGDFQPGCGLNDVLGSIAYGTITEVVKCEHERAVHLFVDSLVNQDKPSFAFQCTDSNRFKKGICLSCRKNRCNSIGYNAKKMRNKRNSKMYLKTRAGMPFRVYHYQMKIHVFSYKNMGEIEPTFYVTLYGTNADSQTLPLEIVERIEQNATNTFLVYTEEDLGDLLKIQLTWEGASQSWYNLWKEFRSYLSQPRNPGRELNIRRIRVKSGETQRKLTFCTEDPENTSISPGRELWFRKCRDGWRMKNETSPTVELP

Take `COCCS(=O)(=O)C(C(=O)NCC(=O)NC1CC1)c1nc2cc(F)c(-c3ccc4c(c3)C(=O)NC4)cc2s1` (centres unmarked) [Example 154, N-[(cyclopropyl-carbamoyl)methyl]-2-[5-fluoro-6-(3-oxo-2,3-dihydro-1H-isoindol-5-yl)-1,3-benzothiazol-2-yl]-2-(2-methoxyethane-sulfonyl) acetamide]: the IC50 worked out at 5 nM.

With `COCCS(=O)(=O)C(C(=O)NCC(=O)NC1CC1)c1nc2cc(F)c(-c3cnc(C4CC4)nc3)cc2s1` (centres unmarked) [Example 155, N-[(cyclopropyl-carbamoyl)methyl]-2-[6-(2-cyclopropyl-pyrimidin-5-yl)-5-fluoro-1,3-benzothiazol-2-yl]-2-(2-methoxyethane-sulfonyl) acetamide], the IC50 is 7 nM. With `COCCS(=O)(=O)C(C(=O)NCC(=O)NC1CC1)c1nc2cc(F)c(-c3cnc(C)nc3)cc2s1` (centres unmarked) [Example 156, N-[(cyclopropyl-carbamoyl)methyl]-2-[5-fluoro-6-(2-methylpyrimidin-5-yl)-1,3-benzothiazol-2-yl]-2-(2-methoxyethane-sulfonyl) acetamide] the figure was 11 nM; with `COCCS(=O)(=O)C(C(=O)NCC(=O)NC1CC1)c1nc2cc(C(F)(F)F)c(-c3cccc(C(=O)N(C)C)c3)cc2s1` (centres unmarked) [Example 157, 3-[2-({[(cyclopropyl-carbamoyl)methyl]carbamoyl}(2-methoxyethane-sulfonyl)methyl)-5-(trifluoromethyl)-1,3-benzothiazol-6-yl]-N,N-dimethylbenzamide], 11 nM; with `COCCS(=O)(=O)C(C(=O)NCC(=O)NC1CC1)c1nc2cc(F)c(-c3ccc(C)nc3)cc2s1` (centres unmarked) [Example 158, N-[(cyclopropyl-carbamoyl)methyl]-2-[5-fluoro-6-(6-methylpyridin-3-yl)-1,3-benzothiazol-2-yl]-2-(2-methoxyethane-sulfonyl) acetamide], 11 nM. With `COCCS(=O)(=O)C(C(=O)NCC(=O)NC1CC1)c1nc2cc(F)c(-c3ccc(C4CC4)nc3)cc2s1` (centres unmarked) [Example 159, N-[(cyclopropyl-carbamoyl)methyl]-2-[6-(6-cyclopropyl-pyridin-3-yl)-5-fluoro-1,3-benzothiazol-2-yl]-2-(2-methoxyethane-sulfonyl) acetamide] the figure was 12 nM; with `COCCS(=O)(=O)C(C(=O)NCC(=O)NC1CC1)c1nc2cc(F)c(-c3ccc(=O)n(C(C)C)c3)cc2s1` (centres unmarked) [Example 160, N-[(cyclopropyl-carbamoyl)methyl]-2-{5-fluoro-6-[6-oxo-1-(propan-2-yl)-1,6-dihydropyridin-3-yl]-1,3-benzothiazol-2-yl}-2-(2-methoxyethane-sulfonyl) acetamide], 12 nM; with `COCCS(=O)(=O)C(C(=O)NCC(=O)NC1CC1)c1nc2cc(F)c(-c3ccc(C(=O)N4CCOCC4)cc3)cc2s1` (centres unmarked) [Example 161, N-[(cyclopropyl-carbamoyl)methyl]-2-{5-fluoro-6-[4-(morpholine-4-carbonyl)phenyl]-1,3-benzothiazol-2-yl}-2-(2-methoxyethane-sulfonyl) acetamide], 14 nM. With `COCCS(=O)(=O)C(C(=O)NCC(=O)NC1CC1)c1nc2cc(C(F)(F)F)c(-c3ccnn3C)cc2s1` (centres unmarked) [Example 162, N-[(cyclopropyl-carbamoyl)methyl]-2-(2-methoxyethane-sulfonyl)-2-[6-(1-methyl-1H-pyrazol-5-yl)-5-(trifluoromethyl)-1,3-benzothiazol-2-yl]acetamide] the figure was 16 nM. The molecule `COCCS(=O)(=O)C(C(=O)NCC(=O)NC1CC1)c1nc2cc(C)c(-c3cnc(C4CC4)nc3)cc2s1` (centres unmarked) [Example 163, N-[(cyclopropyl-carbamoyl)methyl]-2-[6-(2-cyclopropyl-pyrimidin-5-yl)-5-methyl-1,3-benzothiazol-2-yl]-2-(2-methoxyethane-sulfonyl) acetamide] gave an IC50 of 16 nM. The figure for `COCCS(=O)(=O)C(C(=O)NCC(=O)NC1CC1)c1nc2cc(C(F)(F)F)c(-c3ccc(C4CC4)nc3)cc2s1` (centres unmarked) [Example 164, N-[(cyclopropyl-carbamoyl)methyl]-2-[6-(6-cyclopropyl-pyridin-3-yl)-5-(trifluoromethyl)-1,3-benzothiazol-2-yl]-2-(2-methoxyethane-sulfonyl) acetamide] is 17 nM. The figure for `COCCS(=O)(=O)C(C(=O)NCC(=O)NC1CC1)c1nc2cc(C(F)(F)F)c(Br)cc2s1` (centres unmarked) [Example 165, 2-[6-bromo-5-(trifluoromethyl)-1,3-benzothiazol-2-yl]-N-[(cyclopropyl-carbamoyl)methyl]-2-(2-methoxyethane-sulfonyl) acetamide] is 18 nM; for `COCCS(=O)(=O)C(C(=O)NCC(=O)NC1CC1)c1nc2cc(C(F)(F)F)c(-c3ccc(C(=O)N4CCOCC4)cc3)cc2s1` (centres unmarked) [Example 166, N-[(cyclopropyl-carbamoyl)methyl]-2-(2-methoxyethane-sulfonyl)-2-{6-[4-(morpholine-4-arbonyl)phenyl]-5-(trifluoromethyl)-1,3-benzothiazol-2-yl}acetamide] it is 20 nM. Turning to `COCCS(=O)(=O)C(C(=O)NCC(=O)NC1CC1)c1nc2cc(F)c(-c3ccnn3C)cc2s1` (centres unmarked) [Example 167, N-[(cyclopropyl-carbamoyl)methyl]-2-[5-fluoro-6-(1-methyl-1H-pyrazol-5-yl)-1,3-benzothiazol-2-yl]-2-(2-methoxyethane-sulfonyl) acetamide], the IC50 stood at 23 nM. With `CC(C)S(=O)(=O)C(C(=O)NCC(=O)NC1CC1)c1nc2cc(C(F)(F)F)c(-c3ccc(C(=O)N4CCOCC4)cc3)cc2s1` (centres unmarked) [Example 168, N-[(cyclopropyl-carbamoyl)methyl]-2-{6-[4-(morpholine-4-carbonyl)phenyl]-5-(trifluoromethyl)-1,3-benzothiazol-2-yl}-2-(propane-2-sulfonyl) acetamide] the figure was 24 nM. `CC(C)S(=O)(=O)C(C(=O)NCC(=O)NC1CC1)c1nc2cc(C(F)(F)F)c(-c3ccccc3)cc2s1` (centres unmarked) [Example 169, N-[(cyclopropyl-carbamoyl)methyl]-2-[6-phenyl-5-(trifluoromethyl)-1,3-benzothiazol-2-yl]-2-(propane-2-sulfonyl) acetamide] gave an IC50 of 26 nM.

Take `CC(C)S(=O)(=O)C(C(=O)NCC(=O)NC1CC1)c1nc2cc(C(F)(F)F)c(-c3ccc(F)nc3)cc2s1` (centres unmarked) [Example 170, N-[(cyclopropyl-carbamoyl)methyl]-2-[6-(6-fluoropyridin-3-yl)-5-(trifluoromethyl)-1,3-benzothiazol-2-yl]-2-(propane-2-sulfonyl) acetamide]: 27 nM corresponded to half-maximal inhibition (IC50). The IC50 values of the last two molecules are within 1.5-fold of each other.

On to `COCCS(=O)(=O)C(C(=O)NCC(=O)NC1CC1)c1nc2cc(F)c(-c3ccc(F)nc3)cc2s1` (centres unmarked) [Example 171, N-[(cyclopropyl-carbamoyl)methyl]-2-[5-fluoro-6-(6-fluoropyridin-3-yl)-1,3-benzothiazol-2-yl]-2-(2-methoxyethane-sulfonyl) acetamide], for which half-maximal inhibition (IC50) required 27 nM. The figure for `COCCS(=O)(=O)C(C(=O)NCC(=O)NC1CC1)c1nc2cc(C)c(-c3ccn(C)c(=O)c3)cc2s1` (centres unmarked) [Example 172, N-[(cyclopropyl-carbamoyl)methyl]-2-(2-methoxyethane-sulfonyl)-2-[5-methyl-6-(1-methyl-2-oxo-1,2-dihydropyridin-4-yl)-1,3-benzothiazol-2-yl]acetamide] is 27 nM; for `COCCS(=O)(=O)C(C(=O)NCC(=O)NC1CC1)c1nc2cc(C(F)(F)F)c(-c3ccc(F)nc3)cc2s1` (centres unmarked) [Example 173, N-[(cyclopropyl-carbamoyl)methyl]-2-[6-(6-fluoropyridin-3-yl)-5-(trifluoromethyl)-1,3-benzothiazol-2-yl]-2-(2-methoxyethane-sulfonyl) acetamide] it is 32 nM.

Take `COCCS(=O)(=O)C(C(=O)NCC(=O)NC1CC1)c1nc2cc(C)c(-c3cnc(C)nc3)cc2s1` (centres unmarked) [Example 174, N-[(cyclopropyl-carbamoyl)methyl]-2-(2-methoxyethane-sulfonyl)-2-[5-methyl-6-(2-methylpyrimidin-5-yl)-1,3-benzothiazol-2-yl]acetamide]: the IC50 was determined as 35 nM. The IC50 values of the last two molecules are within 1.5-fold of each other. The figure for `CC(C)S(=O)(=O)C(C(=O)NCC(=O)NC1CC1)c1nc2cc(C(F)(F)F)c(-c3cccc(C(=O)N(C)C)c3)cc2s1` (centres unmarked) [Example 175, 3-[2-({[(cyclopropyl-carbamoyl)methyl]carbamoyl} (propane-2-sulfonyl)methyl)-5-(trifluoromethyl)-1,3-benzothiazol-6-yl]-N,N-dimethyl-benzamide] is 37 nM; for `COCCS(=O)(=O)C(C(=O)NCC(=O)NC1CC1)c1nc2cc(C(F)(F)F)c(-c3ccn(C)c(=O)c3)cc2s1` (centres unmarked) [Example 176, N-[(cyclopropyl-carbamoyl)methyl]-2-(2-methoxyethane-sulfonyl)-2-[6-(1-methyl-2-oxo-1,2-dihydropyridin-4-yl)-5-(trifluoromethyl)-1,3-benzothiazol-2-yl]acetamide] it is 37 nM; for `COCCS(=O)(=O)C(C(=O)NCC(=O)NC1CC1)c1nc2cc(F)c(-c3cccc(C(=O)N(C)C)c3)cc2s1` (centres unmarked) [Example 177, 3-[2-({[(cyclopropyl-carbamoyl)methyl]carbamoyl}(2-methoxyethane-sulfonyl)methyl)-5-fluoro-1,3-benzothiazol-6-yl]-N,N-dimethyl-benzamide] it is 51 nM. Regarding `COCCS(=O)(=O)C(C(=O)NCC(=O)NC1CC1)c1nc2cc(C(F)(F)F)c(-c3cnc(C)nc3)cc2s1` (centres unmarked) [Example 178, N-[(cyclopropyl-carbamoyl)methyl]-2-(2-methoxyethane-sulfonyl)-2-[6-(2-methylpyrimidin-5-yl)-5-(trifluoromethyl)-1,3-benzothiazol-2-yl]acetamide], the IC50 was found to be 56 nM.

The molecule `CC(C)S(=O)(=O)C(C(=O)NCC(=O)NC1CC1)c1nc2cc(C(F)(F)F)c(Br)cc2s1` (centres unmarked) [Example 179, 2-[6-bromo-5-(trifluoromethyl)-1,3-benzothiazol-2-yl]-N-[(cyclopropyl-carbamoyl)methyl]-2-(propane-2-sulfonyl) acetamide] yielded an IC50 of 82 nM.
